Test system: CPP32
Assay: Activation of endogenous CPP32 in HeLa cell S-100 (Western blot; cleavage of 35S-labeled PARP and SREBP-2)
Type: biochemical, human
Conditions: 1 mM nucleotide
Experimental: FIGS. 1A-1D illustrate dATP-dependent activation of CPP32 and DNA fragmentation in vitro. Aliquots (10 μl) of HeLa cell S-100 (50 μg) were incubated alone (lane 1), in the presence of 1 mM ATP (lane 2), or in the presence of 1 mM dATP (lane 3) at 30° C. for 1 hr in a final volume of 20 μl of buffer A. FIG. 1A, samples were subjected to SDS-PAGE and transferred to a nitrocellulose filter, probed with a monoclonal anti-CPP32 antibody, and the antigen/antibody complex was visualized by the ECL method. The filter was exposed to Kodak X-OMAT AR X-ray film for 1 min. In FIG. 1B, an aliquot of 10 μl of in vitro translated, ^35S-labeled PARP was added to each reaction. After 5 min, the samples were subjected to SDS-PAGE and transferred to a nitrocellulose filter. The filter was exposed to film for 2 hr at room temperature. In FIG. 1C, a 5 μl aliquot of in vitro translated, ^35S-labeled SREBP-2 was added to each reaction. After incubation at 30° C. for 30 min, the samples were subjected to SDS-PAGE, the gel was dried and exposed to film for 2 hr at room temperature. In FIG. 1D, a 50 μlaliquot of HeLa cell S-100 (250 μg) was incubated with 6 μl Hamster Liver nuclei in the absence (lane 1), or presence of 1 mM ATP (lane 2) or dATP (lane 3) for 2 hr at 37° C. in a final volume of 60 μl of buffer A. DNA was isolated as described in the Examples and size-separated by agarose gel electrophoresis (2% agarose), and the DNA was visualized by ethidium bromide staining.
Activation of CPP32 and DNA fragmentation are two well characterized biochemical markers of apoptosis and its initiation. With the goal of producing an in vitro system that duplicates apoptosis, we prepared 100,000×g cytosolic supernatant (S-100) from suspension cultures of HeLa cells. The activation of CPP32 is the result of cleavage of its 32 kDa precursor into the 20 kDa NH2-terminal fragment and 11 kDa COOH-terminal fragment [Nicholson et al. (1995) supra], thus the activation of CPP32 in the HeLa cell S-100 was monitored by Western blot analysis using a monoclonal antibody against the 20 kDa fragment of CPP32 (FIG. 1A). The enzymatic activity of CPP32 was assayed by measuring the cleavage of two ^35S-labeled substrates, PARP (FIG. 1B) and SREBP-2 (FIG. 1C). DNA fragmentation was assayed by incubating the HeLa cell S-100 with nuclei isolated from hamster liver followed by genomic DNA extraction and analysis by agarose gel electrophoresis. […] The sizes of the cleaved products of PARP and SREBP-2 were the same as observed in cells undergoing apoptosis [Kaufmann et al. (1993) Cancer Res. 53, 3976-3985; Wang et al. (1996) supra]. […]

## Nc1ncnc2c1ncn2[C@H]1C[C@H](O)[C@@H](COP(=O)(O)OP(=O)(O)OP(=O)(O)O)O1 [dATP, deoxyadenosine-5-triphosphate]
  cleavage of 35S-labeled PARP by activated extract: readily cleaved PARP into 85 kDa and 24 kDa fragments
  cleavage of 35S-labeled SREBP-2 by activated extract: SREBP-2 into 55 kDa and 70 kDa fragments
30° C., 1 hr, Western blot
  activation of CPP32 in HeLa cell S-100: most of the CPP32 in the HeLa cell S-100 was activated
